Drawing on ChEMBL document CHEMBL2390824, “Carbonic anhydrase inhibitors. Benzenesulfonamides incorporating cyanoacrylamide moieties strongly inhibit Saccharomyces cerevisiae β-carbonic anhydrase” (Bioorg Med Chem Lett, 2013), this text covers Ratio Ki, Ki and Growth inhibition IC50 for 23 molecules.

The nature of assay [1]: Selectivity ratio of Ki for Sachcharomyces cerevisiae beta carbonic anhydrase to Ki for human carbonic anhydrase-1.
A short description of assay [2]: Selectivity ratio of Ki for Sachcharomyces cerevisiae beta carbonic anhydrase to Ki for human carbonic anhydrase-2.
The nature of assay [3]: Inhibition of Sachcharomyces cerevisiae beta carbonic anhydrase after 15 mins by stopped-flow CO2 hydrase assay. Also on record: species or system Saccharomyces cerevisiae.
Assay [4] relates to Saccharomyces cerevisiae. Put plainly: Antifungal activity against wild type Saccharomyces cerevisiae BY4742 assessed as growth inhibition after 48 hrs by microplate spectrophotometric analysis. Conditions: BY4742, 48 h, read-out: CC50. The assay is classed as functional.

As usually defined, the Ki is the equilibrium dissociation constant of an inhibitor or competing ligand from its target. As to `COc1cc(/C=C(\C#N)C(=O)Nc2ccc(S(N)(=O)=O)cc2)cc(OC)c1OC`, the values for the Ratio Ki in assay [1] and in assay [2] were 5.17 and 1.05, respectively. The molecule further yielded a Ki in assay [3] of 7.1 nM.
Regarding `N#C/C(=C\c1ccc(O)cc1)C(=O)Nc1ccc(S(N)(=O)=O)cc1`, the Growth inhibition IC50 in assay [4] was 6540 nM. Besides, the values for the Ratio Ki in assay [1] and in assay [2] were 23.6 and 13.5, respectively. For the same molecule, affinity in assay [3] was put at a Ki of 2.5 nM.
`N#C/C(=C\c1ccccc1Cl)C(=O)Nc1ccc(S(N)(=O)=O)cc1`: the values for the Ratio Ki in assay [1] and in assay [2] were 4.91 and 7.26, respectively. This molecule came in with a Ki in assay [3] of 8.4 nM.
With `COc1ccc(/C=C(\C#N)C(=O)Nc2ccc(S(N)(=O)=O)cc2)cc1`, the Growth inhibition IC50 in assay [4] is 1140 nM. Moreover, the Ratio Ki in assay [1] stood at 43; in assay [2], 9.78. The molecule also gave a Ki in assay [3] of 0.92 nM.
Take `N#C/C(=C\c1ccco1)C(=O)Nc1ccc(S(N)(=O)=O)cc1`: the values for the Ratio Ki in assay [1] and in assay [2] were 0.8 and 0.72, respectively. The molecule also displayed a Ki in assay [3] of 7.6 nM.
In the case of `COc1cc(OC)c(/C=C(\C#N)C(=O)Nc2ccc(S(N)(=O)=O)cc2)c(OC)c1`, in assay [4], the Growth inhibition IC50 amounted to 730 nM. Also, the Ratio Ki in assay [1] came to 37.6; in assay [2] it was 9.85. For the same molecule, in assay [3], the Ki worked out at 0.68 nM.
As for `N#C/C(=C\c1ccc([N+](=O)[O-])cc1)C(=O)Nc1ccc(S(N)(=O)=O)cc1`, the results for the Ratio Ki in assay [1] and in assay [2] were 2.15 and 0.29, respectively. This molecule also yielded a Ki in assay [3] of 18.6 nM.
As for `N#C/C(=N\Nc1ccccc1)C(=O)Nc1ccc(S(N)(=O)=O)cc1`, the Ratio Ki in assay [1] was 5.23; in assay [2], 1.3. Also, the Ki in assay [3] was 6.5 nM.
Turning to `N#CCC(=O)Nc1ccc(S(N)(=O)=O)cc1`, the Ratio Ki in assay [1] was 6.25; in assay [2] it was 0.7. Besides, the Ki in assay [3] turned out to be 8.7 nM.
In the case of `COc1ccc(/C=C(\C#N)C(=O)Nc2ccc(S(N)(=O)=O)cc2)cc1OC`, the Ratio Ki in assay [1] is 4.34; in assay [2], 2.58. The Ki in assay [3] was 7.2 nM.
The like results for `N=c1oc2ccccc2cc1C(=O)Nc1ccc(S(N)(=O)=O)cc1` were, in that order, 5.67, 1.88 and 5.8 nM.
Take `N#C/C(=C\c1cccs1)C(=O)Nc1ccc(S(N)(=O)=O)cc1`: the Ratio Ki was found to be 1.6 in assay [1] and 0.81 in assay [2]. This molecule came in with a Ki in assay [3] of 3.3 nM.
The like results for `COc1ccccc1/C=C(\C#N)C(=O)Nc1ccc(S(N)(=O)=O)cc1` were, in that order, 1.02, 0.1 and 69.5 nM.
As to `CC(=O)Nc1nnc(S(N)(=O)=O)s1` [ACETAZOLAMIDE], the Ratio Ki in assay [1] was 3.02; in assay [2], 0.14. In addition, in assay [3], the Ki was 82.6 nM.
For `N#C/C(C(=O)Nc1ccc(S(N)(=O)=O)cc1)=C(\S)Nc1ccccc1`, the Ratio Ki was found to be 1.47 in assay [1] and 0.14 in assay [2]. In addition, the Ki in assay [3] stood at 45.8 nM.
`CN(C)c1ccc(/C=C(\C#N)C(=O)Nc2ccc(S(N)(=O)=O)cc2)cc1`: the Growth inhibition IC50 in assay [4] was found to be 6220 nM. For the same molecule, the Ratio Ki was 15.8 in assay [1] and 6.46 in assay [2]. Also, the Ki in assay [3] is 3 nM.
Consider `N#C/C(=C\c1ccc(Cl)cc1Cl)C(=O)Nc1ccc(S(N)(=O)=O)cc1`, for which the Ratio Ki stood at 5.17 in assay [1] and 3.61 in assay [2]. Besides, the Ki in assay [3] is 9.1 nM.
`COc1cc(/C=C(\C#N)C(=O)Nc2ccc(S(N)(=O)=O)cc2)ccc1O`: the Ratio Ki was determined as 5.87 in assay [1] and 1.07 in assay [2]. In assay [3], affinity was put at a Ki of 5.6 nM.
For `N#C/C(=C\c1ccc(O)c(O)c1)C(=O)Nc1ccc(S(N)(=O)=O)cc1`, in assay [4], the Growth inhibition IC50 was found to be 890 nM. The Ratio Ki in assay [1] is 69.9; in assay [2], 5.6. Moreover, in assay [3], the affinity, expressed as Ki, was 0.75 nM.
On to `COc1cc(OC)c(OC)cc1/C=C(\C#N)C(=O)Nc1ccc(S(N)(=O)=O)cc1`, for which the Ratio Ki in assay [1] stood at 4.93; in assay [2], 4.44. The same molecule had a Ki in assay [3] of 8.6 nM.
The like results for `N#C/C(=C\c1ccc2c(c1)OCO2)C(=O)Nc1ccc(S(N)(=O)=O)cc1` were, in that order, 3.29, 1.9 and 7.5 nM.
The like results for `N#C/C(=C\C=C\c1ccccc1)C(=O)Nc1ccc(S(N)(=O)=O)cc1` were, in that order, 3.16, 5.3 and 5.9 nM.
The like results for `CC(=O)C1=NN(c2ccccc2)/C(=C(\C#N)C(=O)Nc2ccc(S(N)(=O)=O)cc2)S1` were, in that order, 2.02, 0.13 and 57.3 nM.
